Our source for the minimal effective concentration values is patent publication US9200008B2 (ASKA PHARMACEUTICAL CO., LTD., priority 2010, dated 2015).

This assay has as its system Human prostate cancer cell lines (PC-3 cells). As to the kind of experiment: Measurement of cell death-inducing activity (Test Example 1). The format is cell-based. The conditions noted are these: PC-3, 48 h, 48 hours after addition, tested at 10, 1, 0.1, 0.025 and 0.00625 μmol/L, qualitative evaluation of 10 fields, read-out: Concentration showing the cell death-inducing activity (cell death-inducing rate not less than 40%). The protocol: The cell death-inducing activity of the compound represented by the formula (1) or the salt thereof was measured as follows.
Human prostate cancer cell lines (PC-3 cells) were seeded to 6-well plates at 1×10^5 cells/2 mL/well, and cultured in the presence of 5% CO2 at 37° C. for 48 hours. Thereafter, each compound was added thereto so as to provide 10, 1, 0.1, 0.025 and 0.00625 μmol/L. As a control, DMSO was added. After the addition, the cells were continuously cultured for 48 hours. […] When the cell death-inducing rate was not less than 40%, the compound was judged to have the cell death-inducing activity.
Turning to `Cc1ccc(-c2cc(NC(=O)OCc3ccc4c(c3)nc3n4CCC3)n(C)n2)c(C)c1` [Example 9-260], the minimal effective concentration is 0.025 µM.
In the case of `CCn1nc(-c2ccc(C)cc2OC)cc1NC(=O)OCc1ccc2c(c1)ncn2C` [Example 9-227] it was 0.00625 µM; in that of `Cc1ccc(-c2nc(C)c(NC(=O)OCc3ccc4c(c3)nc3n4CCCC3)s2)c(C)c1` [Example 9-113], 0.025 µM; in that of `CCc1ccccc1-c1nc(C)c(NC(=O)OCc2ccc3nn(C)cc3c2)s1` [Example 9-142], 0.1 µM.
With `COc1ccccc1-c1ncc(NC(=O)OCc2ccc3c(c2)ncn3C)s1` [Example 9-178], the minimal effective concentration was 10 µM.
In the case of `CCc1nc(-c2ccc(Cl)cc2)sc1C(=O)N/N=C/c1ccc(OC)c(O)c1` [Example 23-100] it was 1 µM; in that of `COc1cc(F)ccc1-c1nc(C)c(NC(=O)OCc2ccc3c(cnn3C)c2)s1` [Example 9-127], 0.1 µM.
In the case of `Cc1ccc(-c2nc(C)c(NC(=O)OCc3ccc4c(c3)nnn4C)s2)c(C)c1` [Example 9-17] it was 0.025 µM; in that of `CCc1nc(-c2ccc(C)cc2C)sc1NC(=O)OCc1ccc2c(c1)nc(C)n2C` [Example 9-375], 0.1 µM; in that of `Cc1ccc(-c2nc(C)c(C(=O)N/N=C/c3ccc(O)c(C)c3)s2)c(C)c1` [Example 23-45], 1 µM.
In the case of `CCn1nc(-c2ccccc2OC)cc1COC(=O)Nc1ccc2c(c1)ncn2C` [Example 13-77] it was 0.1 µM; in that of `COc1ccc(/C=N/NC(=O)c2sc(-c3ccc(Cl)cc3OC)nc2C)cn1` [Example 23-85], 1 µM.
Regarding `COc1cc(Cl)ccc1-c1nc(C)c(NC(=O)OCc2ccc3c(c2)nc2n3CCN(C)C2)s1` [Example 38-1, [2-(4-Chloro-2-methoxyphenyl)-4-methylthiazol-5-yl]carbamic acid 2-methyl-1,2,3,4-tetrahydrobenzo[4,5]imidazo[1,2-a]pyrazin-8-ylmethyl ester], the minimal effective concentration came to 1 µM.
In the case of `COc1ccc(/C=N/NC(=O)c2cnc(-c3ccccc3C)s2)cc1O` [Example 23-50] it was 0.1 µM.
In the case of `COc1ccc(/C=N/NC(=O)c2sc(-c3ccc(Cl)cc3Cl)nc2C)cc1O` [Example 23-1, 2-(2,4-Dichlorophenyl)-4-methylthiazole-5-carboxylic acid[1-(3-hydroxy-4-methoxyphenyl)methylidene]hydrazide] it was 10 µM; in that of `CCn1cnc2cc(NC(=O)OCc3sc(-c4ccc(F)cc4Cl)nc3C)ccc21` [Example 13-18], 0.025 µM.
In the case of `CCc1nc2cc(COC(=O)Nc3sc(-c4ccc(C)cc4C)nc3C)ccc2n1C` [Example 9-83] it was 0.1 µM; in that of `CCn1nc(-c2ccccc2OC)cc1NC(=O)OCc1ccc2c(c1)nc1n2CCC1` [Example 9-255], 1 µM.
`COc1cc(Cl)ccc1-c1nc(C)c(NC(=O)OCc2ccc3nc(C)c(C)nc3c2)s1` [Example 9-200]: the minimal effective concentration stood at 1 µM.
In the case of `CCn1nnc2cc(COC(=O)Nc3sc(-c4ccc(F)cc4OC)nc3C)ccc21` [Example 9-23] it was 0.025 µM; in that of `COc1cc(F)ccc1-c1nc(C)c(NC(=O)OCc2ccc3c(c2)nc2n3CCCC2)s1` [Example 9-111], 0.1 µM; in that of `COc1ccc(/C=N/NC(=O)c2sc(-c3cccc(Cl)c3C)nc2C)cc1O` [Example 23-125], 1 µM.
In the case of `COc1ccccc1-c1nc(C)c(C(=O)N/N=C/c2ccc3ccn(C)c3c2)s1` [Example 23-93] it was 0.1 µM.
Take `CCn1nc(-c2ccc(C)cc2OC)cc1NC(=O)OCc1ccc2c(c1)nc1n2CCCC1` [Example 9-270]: the minimal effective concentration is 0.1 µM.
In the case of `CCn1cnc2cc(COC(=O)Nc3sc(-c4ccc(Cl)cc4OC)nc3C)ccc21` [Example 9-59] it was 0.00625 µM; in that of `COc1cc(Cl)ccc1-c1nc(C)c(C(=O)N/N=C/c2ccc(O)cc2)s1` [Example 23-75], 1 µM; in that of `COc1ccccc1-c1nc(C)c(C(=O)N/N=C/c2ccc3c(ccn3C)c2)s1` [Example 23-92], 0.025 µM.
In the case of `COc1cc(F)ccc1-c1cc(COC(=O)Nc2ccc3c(c2)ncn3C)nn1C` [Example 13-135] it was 0.1 µM; in that of `COc1cc(C)ccc1-c1nc(C)c(NC(=O)OCc2ccc3c(c2)nc(C)n3C)s1` [Example 9-77], 0.025 µM.
In the case of `Cc1ccc(-c2cc(COC(=O)Nc3ccc4c(c3)nc3n4CCC3)n(C)n2)c(C)c1` [Example 13-110] it was 0.00625 µM; in that of `CCn1nc(-c2ccc(C)cc2OC)cc1COC(=O)Nc1ccc2c(c1)nc1n2CCCC1` [Example 13-121], 0.025 µM.
Regarding `Cc1cccc(-c2nc(C)c(C(=O)N/N=C/c3cc(C)c(O)c(C)c3)s2)c1C` [Example 23-23], the minimal effective concentration amounted to 1 µM.
In the case of `CCn1cnc2cc(NC(=O)OCc3sc(-c4ccc(Cl)cc4OC)nc3C)ccc21` [Example 13-13], the minimal effective concentration came to 0.1 µM.
Consider `Cc1ccccc1-c1cc(NC(=O)OCc2ccc3c(cnn3C)c2)n(C)n1` [Example 9-277], for which the minimal effective concentration came out at 10 µM.
In the case of `COc1ccc(/C=N/NC(=O)c2sc(-c3ccccc3OC)nc2C)cc1F` [Example 23-68] it was 0.1 µM.
In the case of `CCc1nc(-c2ccc(Cl)cc2OC)sc1NC(=O)OCc1ccc2c(c1)nc(C)n2C` [Example 9-373] it was 0.025 µM; in that of `CCn1nc(-c2ccc(Cl)cc2Cl)cc1NC(=O)OC(C)c1ccc2c(c1)ncn2C` (stereo not shown) [Example 9-337], 10 µM.
In the case of `CCn1nc(-c2ccc(F)cc2OC)cc1NC(=O)OCc1ccc2c(c1)nc1n2CCCC1` [Example 9-266] it was 1 µM; in that of `COc1cc(Cl)ccc1-c1nc(C)c(NC(=O)OCc2ccc3c(cnn3C)c2)s1` [Example 9-128], 0.00625 µM; in that of `CCn1cc2ccc(COC(=O)Nc3cc(-c4ccc(Cl)cc4OC)nn3CC)cc2n1` [Example 9-302], 0.1 µM.
As for `CCn1cnc2cc(NC(=O)OCc3sc(-c4ccc(F)cc4C)nc3C)ccc21` [Example 13-16], the minimal effective concentration is 0.025 µM.
In the case of `CCc1nc(-c2ccc(C)cc2C)sc1NC(=O)OCc1ccc2nn(CC)cc2c1` [Example 9-371] it was 1 µM; in that of `Cc1nc(-c2ccccc2Cl)sc1C(=O)N/N=C/c1ccc(OC(F)F)c(O)c1` [Example 23-116], 1 µM.
In the case of `COc1ccccc1-c1cc(COC(=O)Nc2ccc3c(c2)nc2n3CCCC2)n(C)n1` [Example 13-114] it was 0.1 µM; in that of `COc1ccc(NC(=O)OCc2cc(-c3ccc(F)cc3OC)nn2C)cc1` [Example 13-70], 10 µM.
In the case of `Cc1cc(F)ccc1-c1nc(C)c(NC(=O)OCc2ccc3c(c2)nc2n3CCC2)s1` [Example 9-106] it was 0.025 µM.
Consider `Cc1cc(F)ccc1-c1nc(C)c(COC(=O)Nc2ccc3c(c2)ncn3C)s1` [Example 13-9], for which the minimal effective concentration turned out to be 0.025 µM.
In the case of `CCN(Cc1ccc(OC)cc1)NC(=O)c1sc(-c2cccc(C)c2C)nc1C` [Example 16-14] it was 10 µM.
In the case of `CCCc1nc(-c2ccc(C)cc2C)sc1NC(=O)OCc1ccc2c(c1)ncn2C` [Example 9-184] it was 1 µM; in that of `CCc1nc(-c2ccc(C)cc2C)sc1NC(=O)OCc1ccc2c(cnn2CC)c1` [Example 9-175], 0.1 µM; in that of `CCn1nc(-c2ccc(F)cc2OC)cc1NC(=O)OCc1ccc2c(cnn2C)c1` [Example 9-279], 1 µM.
In the case of `CCCOc1ccccc1-c1nc(C)c(C(=O)N/N=C/c2cc(C)c(O)c(C)c2)s1` [Example 23-55], the minimal effective concentration stood at 1 µM.
On to `COc1ccc(-c2nc(-c3ccccc3C)sc2C(=O)N/N=C/c2cc(C)c(O)c(C)c2)cc1` [Example 23-162], for which the minimal effective concentration came out at 1 µM.
Regarding `Cc1ccccc1-c1ncc(C(=O)N/N=C/c2cc(C)c(O)c(C)c2)s1` [Example 23-124], the minimal effective concentration was 0.1 µM.
In the case of `Cc1ccc(-c2nc(C)c(NC(=O)OCc3ccc4ncsc4c3)s2)c(C)c1` [Example 36-4] it was 10 µM; in that of `COc1cccc(/C=N/NC(=O)c2sc(-c3ccc(Cl)cc3)nc2C)c1O` [Example 23-60], 10 µM; in that of `CCn1cnc2cc(NC(=O)OCc3sc(-c4ccccc4C)nc3C)ccc21` [Example 13-12], 0.1 µM.
In the case of `Cn1cnc2cc(NC(=O)OCc3cc(-c4ccc(Cl)cc4Cl)ns3)ccc21` [Example 47-1] it was 0.1 µM; in that of `COc1ccc(-c2nc(C)c(NC(=O)OCc3ccc4ncsc4c3)s2)c(OC)c1` [Example 36-3], 10 µM; in that of `Cc1cc(Cl)ccc1-c1nc(C)c(NC(=O)OCc2ccc3c(c2)nc2n3CCSC2)s1` [Example 40-3, [2-(4-Chloro-2-methylphenyl)-4-methylthiazol-5-yl]carbamic acid 3,4-dihydro-1H-2-thia-4a,9-diazafluoren-7-ylmethyl ester], 0.1 µM.
In the case of `CCn1c(C)nc2cc(NC(=O)OCc3sc(-c4ccc(Cl)cc4C)nc3C)ccc21` [Example 13-21] it was 0.1 µM.
